Tests used:
[1] = target: Estrogen receptor (Homo sapiens, UniProt Q92731+P03372); settings: mcf7
Description: Displacement of [3H]estradiol from Estrogen receptor in MCF-7 cells

[2] = species on record: Homo sapiens; assay: Inhibition of Calmodulin activation of cyclic nucleotide phosphodiesterase; assay type: functional; settings: concentration not given here

| IC50 [1] [nM] | inhibition [2] [%] | SMILES |
| --- | --- | --- |
|  | 6 | O=C(c1ccc(OCCN2CCCCC2)cc1)c1c(-c2ccc(O)cc2)sc2cc(O)ccc12 |
|  | 44 | CC/C(=C(\c1ccccc1)c1ccc(OCCN(C)C)cc1)c1ccccc1 |
| 740 | 22 | Oc1ccc2c3c(ccc2c1)-c1ccccc1C3c1ccc(OCCN2CCCCC2)cc1 (configuration not stated) |

The next lines start with the compound.

| SMILES | IC50 [1] [nM] | inhibition [2] [%] |
| --- | --- | --- |
| O=C(c1ccc(OCCN2CCCC2)cc1)c1c(-c2ccc(O)cc2)sc2cc(O)ccc12 [LY-117018] | 120 | 3 |
| Oc1ccc2c(c1)C(c1ccc(OCCN3CCCCC3)cc1)c1c-2ccc2cc(O)ccc12 (configuration not stated) | 125 | 18 |
| O=C(C1=C(c2ccccc2)CCc2cc(O)ccc21)c1ccc(OCCN2CCCCC2)cc1 | 1650 | 6 |
| O=C(C1=C(c2ccc(O)cc2)CCc2cc(O)ccc21)c1ccc(OCCN2CCCCC2)cc1 | 73 | 2 |

Reference: ChEMBL document CHEMBL1125398, “Antiestrogens. 3. Estrogen receptor affinities and antiproliferative effects in MCF-7 cells of phenolic analogues of trioxifene, [3,4-dihydro-2-(4- methoxyphenyl)-1-naphthalenyl][4-[2-(1-pyrrolidinyl)ethoxy]- phenyl]methanone” (J Med Chem, 1992)
